Measured values taken from ChEMBL document CHEMBL3588790, “Identification of p-hydroxybenzyl alcohol, tyrosol, phloretin and its derivate phloridzin as tyrosinase substrates” (Bioorg Med Chem, 2015).
Calls of active or inactive are those of the source. The rule behind the calls is not given here.

Columns and labels:
[1] = target: T1, Tyrosinase (Agaricus bisporus) (UniProt O42713); assay: Inhibition of diphenolase activity of mushroom tyrosinase using L-dopa as substrate at 0.1 mM by spectrophotometric assay
T1 sequence (whole entry): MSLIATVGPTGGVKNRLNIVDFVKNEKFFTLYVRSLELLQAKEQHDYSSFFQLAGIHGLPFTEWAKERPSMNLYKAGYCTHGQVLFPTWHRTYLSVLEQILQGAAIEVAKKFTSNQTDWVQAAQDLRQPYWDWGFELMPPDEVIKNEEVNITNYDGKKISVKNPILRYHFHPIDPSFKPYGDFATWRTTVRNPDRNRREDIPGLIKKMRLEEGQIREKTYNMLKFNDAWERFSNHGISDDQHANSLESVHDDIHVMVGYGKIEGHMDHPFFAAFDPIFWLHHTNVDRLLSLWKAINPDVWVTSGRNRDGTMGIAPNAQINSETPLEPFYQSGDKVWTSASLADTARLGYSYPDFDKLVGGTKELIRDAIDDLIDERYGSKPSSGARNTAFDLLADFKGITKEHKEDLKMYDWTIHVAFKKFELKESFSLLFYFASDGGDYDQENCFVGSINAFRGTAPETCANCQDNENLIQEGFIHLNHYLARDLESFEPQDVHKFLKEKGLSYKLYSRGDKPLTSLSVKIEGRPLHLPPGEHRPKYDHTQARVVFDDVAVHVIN

[2] = target: T1, Tyrosinase (Agaricus bisporus); assay: Inhibition of monophenolase activity of mushroom tyrosinase using L-tyrosine as substrate at 0.1 mM by spectrophotometric assay
[3] = target: T1, Tyrosinase (Agaricus bisporus); assay: Inhibition of monophenolase activity of mushroom tyrosinase using L-tyrosine as substrate at 0.2 mM by spectrophotometric assay
[4] = target: T1, Tyrosinase (Agaricus bisporus); assay: Activity at mushroom tyrosinase assessed as decrease in absorbance at 475 nm using L-dopa as substrate by spectrophotometric assay in presence of sodium periodate
[5] = target: T1, Tyrosinase (Agaricus bisporus); assay: Activity at mushroom tyrosinase by spectrophotometric assay in presence of hydrogen peroxide
[6] = target: T1, Tyrosinase (Agaricus bisporus); assay: Inhibition of diphenolase activity of mushroom tyrosinase using L-dopa as substrate at 0.2 mM by spectrophotometric assay
[7] = target: T1, Tyrosinase (Agaricus bisporus); assay: Inhibition of diphenolase activity of mushroom tyrosinase using L-dopa as substrate at 0.05 mM by spectrophotometric assay
[8] = target: T1, Tyrosinase (Agaricus bisporus); assay: Inhibition of monophenolase activity of mushroom tyrosinase using L-tyrosine as substrate at 0.05 mM by spectrophotometric assay
[9] = target: T1, Tyrosinase (Agaricus bisporus); conditions: 0.15 mM
Description: Inhibition of diphenolase activity of mushroom tyrosinase using L-dopa as substrate at 0.15 mM by spectrophotometric assay

[10] = target: T1, Tyrosinase (Agaricus bisporus); conditions: 0.15 mM; remark: listed apart in the source
Description: Inhibition of monophenolase activity of mushroom tyrosinase using L-tyrosine as substrate at 0.15 mM by spectrophotometric assay

[11] = target: T1, Tyrosinase (Agaricus bisporus); assay: Activity at mushroom tyrosinase assessed as decrease in absorbance using L-tyrosine as substrate by oxygen consumption assay
[12] = target: T1, Tyrosinase (Agaricus bisporus); assay: Activity at mushroom tyrosinase assessed as decrease in absorbance using L-dopa as substrate by oxygen consumption assay
[13] = target: T1, Tyrosinase (Agaricus bisporus); assay: Activity at mushroom tyrosinase assessed as decrease in absorbance using DOMA as substrate by oxygen consumption assay
[14] = target: T1, Tyrosinase (Agaricus bisporus); assay: Inhibition of monophenolase activity of mushroom tyrosinase using L-tyrosine as substrate at 3 mM by spectrophotometric assay
[15] = target: T1, Tyrosinase (Agaricus bisporus); assay: Inhibition of monophenolase activity of mushroom tyrosinase using L-tyrosine as substrate at 6 mM by spectrophotometric assay
[16] = target: T1, Tyrosinase (Agaricus bisporus); assay: Inhibition of diphenolase activity of mushroom tyrosinase using L-dopa as substrate at 9 mM by spectrophotometric assay
[17] = target: T1, Tyrosinase (Agaricus bisporus); assay: Inhibition of monophenolase activity of mushroom tyrosinase using L-tyrosine as substrate at 9 mM by spectrophotometric assay
[18] = target: T1, Tyrosinase (Agaricus bisporus); assay: Inhibition of diphenolase activity of mushroom tyrosinase using L-dopa as substrate at 6 mM by spectrophotometric assay
[19] = target: T1, Tyrosinase (Agaricus bisporus); assay: Inhibition of diphenolase activity of mushroom tyrosinase using L-dopa as substrate at 3 mM by spectrophotometric assay
[20] = target: T1, Tyrosinase (Agaricus bisporus); assay: Inhibition of diphenolase activity of mushroom tyrosinase using L-dopa as substrate at 1.5 mM by spectrophotometric assay
[21] = target: T1, Tyrosinase (Agaricus bisporus); assay: Inhibition of diphenolase activity of mushroom tyrosinase using L-dopa as substrate at 0.5 mM by spectrophotometric assay
[22] = target: T1, Tyrosinase (Agaricus bisporus); assay: Inhibition of diphenolase activity of mushroom tyrosinase using L-dopa as substrate at 1 mM by spectrophotometric assay

Compound | inhibition [1] | inhibition [2] | Activity [5] | inhibition [7] | inhibition [8] | Activity [11] | Activity [12] | Activity [13] | inhibition [20] | inhibition [21] | inhibition [22] | also measured
O=C(CCc1ccc(O)cc1)c1c(O)cc(O)cc1O | 46.2% | 17.9% | Active | 28.3% | 4.2% | – | – | – | – | – | – | inhibition [3]: 48.5%; Activity [4]: Active; inhibition [6]: 62.6%
O=C(CCc1ccc(O)cc1)c1c(O)cc(O)cc1O[C@@H]1O[C@H](CO)[C@@H](O)[C@H](O)[C@H]1O | 45.3% | 34% | Active | 31.4% | 9% | Active | Active | Active | – | – | – | inhibition [9]: 52.7%; inhibition [10]: 47.7%
O=C(O)Cc1ccccc1 | – | – | – | – | – | – | – | – | – | – | – | inhibition [14]: 19.7%; inhibition [15]: 39.4%; inhibition [16]: 58.1%; inhibition [17]: 55.4%; inhibition [18]: 41.6%; inhibition [19]: 18.2%
OCc1ccc(O)cc1 | – | – | Active | – | – | Active | Active | Active | 38.9% | 15.2% | 28.4% | –
OCCc1ccc(O)cc1 | – | – | Active | – | – | Active | Active | Active | 18.3% | 14.3% | 18.7% | –
